According to patent US4939132A, “Novel 5-alkylsulfonylsalicylanilides and microbiocidal compositions for controlling the growth of microorganisms” (The Research Foundation of State University of New York, priority 1985, dated 1990):
≈ marks a conversion by molar mass, not a printed value. Like-named read-outs stand apart in the source and are kept apart here.

How the values were obtained:
A. viscosus [1] = assay: Tube dilution assay (Macro-Broth Dilution Method), A. viscosus; format: cell-based; details: Actinomyces viscosus, read-out: Minimal Inhibitory Concentration
Method: (§1) Various compositions prepared in accord with the above examples were tested in vitro for minimal concentration to inhibit or kill organisms in comparison to prior art compounds. The test used is set forth in detail in Manual of Clinical Microbiology, third edition, pages 456-475 (Macro-BrothDilution Method), 1980, American society for microbiology.
(§2) In the test procedure serial dilutions of the antimicrobic compound are innoculated with the organism to be inhibited and incubated. The minimum inhibitory concentration (MIC) is the lowest concentration of antimicrobic compound that is achieved without visible growth of the organism. The test method comprises preparing a stock solution of antimicrobic compound and diluting it in a Meuller-Hinton broth. A series of sterile 13 by 100 mm, cotton-plugged, test tubes are set out wherein 2 ml of the broth diluted antimicrobic solution (working solution) is added to the first tube and to each remaining tube is added 1.0 ml of non-antimicrobic containing broth. 1.0 ml of working solution from the first tube is transferred to the second tube and thoroughly mixed therewith. Thereafter, 1.0 ml of the mixed solution is transferred to the third tube and mixed with the process continuing through the dilution steps desired. The tubes are then incubated at 35° C. for 16 to 20 hours. […] Various antimicrobic compounds designated (a)-(i) were tested for minimum inhibitory concentration in accord with the above procedure. Compounds (a)-(e) correspond to compounds (a)-(e) of example 9. Compounds (f)-(i) are as follow s: (f) 5-n -octylsulfonyl-4'-nitrosalicylanilide; (g) 5-n-decylsulfony-4'-bromosalicylanilide; (h) 5-n-hexylsulfonyl-4'-bromosalicylanilide; and, (i) 5-n-dodecylsulfonyl-4'-trifluoromethyl salicylanilide.

S. aureus = assay: Tube dilution assay (Macro-Broth Dilution Method), S. aureus; format: cell-based; details: Staphylococcus aureus, Mueller-Hinton broth, 35° C., 16 to 20 hours, read-out: Minimal Inhibitory Concentration
Method: as §1, §2

A. viscosus [2] = assay: In vitro plaque growth inhibition (bovine enamel slabs), A. viscosus; format: cell-based, Actinomyces viscosus; details: for Total Growth ID50 (50% growth inhibition dosage): 2 min contact, about 24 h incubation, aerobic
Method: (§3) Various compositions prepared in accord with the above examples were tested in vitro for plaque inhibition in comparison with prior art compounds. The test used is set forth in detail in Comparison of Antiplaque Agents Using an In Vitro Assay Reflecting Oral Conditions by R. T. Evans et al, Journal of Dental Research, June 1977.
(§4) In summary incisor teeth from bovine mandibles, obtained immediately after slaughter, are cut into 4×8 mm enamel slabs and sterilized in a 0.15M NaCl solution buffered at a pH of 7.5 with 0.02M sodium phosphate (PBS soln). Before use the slabs are coated with sterile saliva and then rinsed twice in sterile PBS. The slabs are then placed in small plastic petri dishes containing various concentrations of the compositions to be tested. The test solution used in accordance is a solution of the test compound in a mixture of 20% by volume of ethanol, 40% by volume of propylene glycol and 40% by volume of a pH 8 aqueous buffer solution containing mono and di sodium phosphates. The slabs are left in the solution of the test compound for two minutes and then rinsed in sterile PBS solution. After rinsing, each slab is placed in a 10×75 mm cotton stoppered glass culture tube containing 1 ml of sucrose-broth culture medium which is then innoculated with a 24 hour culture of the desired microorganism standardized to an optical density (OD)540 of 0.75 for A. viscosus and S. mutans. […] of the inoculation medium is used. A. viscosus is incubated under aerobic conditions and the S. mutans is incubated under anaerobic conditions (5% CO2 and 95% H2). After incubation for about 24 hours the nonadherent organisms are removed and the tube is rinsed twice with 0.5 ml of PBS and the washings combined with the nonadherent organisms.
(§5) The tooth slabs are then transferred to 1 ml of 0.1 N NaOH and 1 ml of 0.1N NaOH is also added to the glass culture tubes. The slabs and tubes are then sonically agitated, if necessary to suspend the adherent organisms. The optical density of each of the three fractions is then measured on a spectophotometer. The tests are repeated with varying concentrations of the compositions being tested until growth inhibition curves can be developed. The 50% growth inhibition dosages (ID50) are then determined with a reliability of +or -80% or better. The compounds tested are samples (a)-(e) as follows: (a) tribromosalan; (b) 5-n-decanoyl-4'-nitrosalicylanilide; (c) 5-n-decylsulfonyl-4'-nitro-salicylanilide; (d) 5-n-decylsulfonyl-4'-trifluoromethyl-salicylanilide; and, (e) 5-n-decylsulfonyl-3'-trifluoromethyl-salicylanilide.

S. epidermidis = assay: Tube dilution assay (Macro-Broth Dilution Method), S. epidermidis; format: cell-based; details: Staphylococcus epidermidis, read-out: Minimal Inhibitory Concentration
Method: as §1, §2

S. pyogenes = assay: Tube dilution assay (Macro-Broth Dilution Method), S. pyogenes; format: cell-based; details: Streptococcus pyogenes, read-out: Minimal Inhibitory Concentration
Method: as §1, §2

S. mutans [3] = assay: In vitro plaque growth inhibition (bovine enamel slabs), S. mutans; format: cell-based, Streptococcus mutans; details: for Total Growth ID50 (50% growth inhibition dosage): 2 min contact, about 24 h incubation, anaerobic
Method: as §3, §4, §5

S. mutans [4] = assay: Tube dilution assay (Macro-Broth Dilution Method), S. mutans; format: cell-based; details: Streptococcus mutans, read-out: Minimal Inhibitory Concentration
Method: as §1, §2

white rats = assay: Acute oral toxicity, single dose; format: in vivo; details: 2,500 mg/kg dose group, eighth day; attributed to a punctured thoracic cavity during administration
Method: (§6) Twelve female white rats averaging 250-300 grams in weight were fasted overnight and divided into three groups of four animals each. In one group each animal received, by gavage tube, 4 ml of an aqueous solution of 1% methylcellulose, the drug delivery vehicle. This group was the control group. The remaining two groups received doses of 750 and 2500 mg/kg respectively of 5-n-decylsulfonyl-4'-trifluoromethyl-salicylanilide in 4-ml aqueous 1% methyl cellulose suspension.
(§7) Within the first week following this single dose only one animal died.
(§8) An autopsy was performed and the cause of death was attributed to a punctured thoracic cavity during administration of the drug.

[5] = Acute oral toxicity, single dose; format: in vivo; details: rat, in vivo; single dose oral route, Sprague-Dawley white rats
Method: as §6, §7, §8

man = details: in man; cited from earlier work
[6] = A. viscosus, Mueller-Hinton broth, 35° C., 16 to 20 hours
[7] = S. epidermidis, Mueller-Hinton broth, 35° C., 16 to 20 hours
[8] = S. pyogenes, Mueller-Hinton broth, 35° C., 16 to 20 hours
[9] = S. mutans, Mueller-Hinton broth, 35° C., 16 to 20 hours

| Compound | MIC (A. viscosus [1]) | MIC (S. aureus) | Total Growth ID50 (50% growth inhibition dosage) (A. viscosus [2]) | Maximum % Inhibition (A. viscosus [2]; at 0.2%) | MIC (S. epidermidis) | MIC (S. pyogenes) | Total Growth ID50 (50% growth inhibition dosage) (S. mutans [3]) | Maximum % Inhibition (S. mutans [3]; at 0.2%) | MIC (S. mutans [4]) | MIC (A. viscosus [1]; [6]) | MIC (S. epidermidis; [7]) | MIC (S. pyogenes; [8]) | MIC (S. mutans [4]; [9]) | deaths (white rats) | LD50 [5] | Maximum % Inhibition (A. viscosus [2]; at 0.1%) | Maximum % Inhibition (S. mutans [3]; at 0.1%) | allergic reactions (man) |
| --- | --- | --- | --- | --- | --- | --- | --- | --- | --- | --- | --- | --- | --- | --- | --- | --- | --- | --- |
| O=C(Nc1ccc(Br)cc1)c1cc(Br)cc(Br)c1O [(a), tribromosalan, reference compound] | 0.5 µg/mL (≈ 1.11 µM) | 1 µg/mL (≈ 2.22 µM) | 8.8 × 10^-4 | 53% | 0.5 µg/mL (≈ 1.11 µM) | 0.5 µg/mL (≈ 1.11 µM) | 1.2 × 10^-7 | 46% | 1 µg/mL (≈ 2.22 µM) |  |  |  |  |  |  |  |  |  |
| CCCCCCCCCC(=O)c1ccc(O)c(C(=O)Nc2ccc([N+](=O)[O-])cc2)c1 [(b), 5-n-decanoyl-4'-nitrosalicylanilide, reference compound] |  | 0.1 µg/mL (≈ 0.242 µM) | 1.1 × 10^-4 | 90% |  |  | 2.3 × 10^-2 | 59% |  | 0.05 µg/mL (≈ 0.121 µM) | 0.1 µg/mL (≈ 0.242 µM) | 0.1 µg/mL (≈ 0.242 µM) | 5 µg/mL (≈ 12.1 µM) |  |  |  |  |  |
| CCCCCCCCCCS(=O)(=O)c1ccc(O)c(C(=O)Nc2ccc([N+](=O)[O-])cc2)c1 [(c), 5-n-decylsulfonyl-4'-nitro-salicylanilide] |  | 0.5 µg/mL (≈ 1.08 µM) | 2.3 × 10^-4 | 93% |  |  | 1.9 × 10^-4 | 80% |  | 0.5 µg/mL (≈ 1.08 µM) | 0.5 µg/mL (≈ 1.08 µM) | 0.5 µg/mL (≈ 1.08 µM) | 0.5 µg/mL (≈ 1.08 µM) |  |  |  |  |  |
| CCCCCCCCCCS(=O)(=O)c1ccc(O)c(C(=O)Nc2ccc(C(F)(F)F)cc2)c1 [(d), 5-n-decylsulfonyl-4'-trifluoromethyl-salicylanilide] |  | 0.5 µg/mL (≈ 1.03 µM) | 0.9 × 10^-4 | 95% |  |  | 1.9 × 10^-3 | 76% |  | 0.1 µg/mL (≈ 0.206 µM) | 0.1 µg/mL (≈ 0.206 µM) | 0.5 µg/mL (≈ 1.03 µM) | 0.5 µg/mL (≈ 1.03 µM) | a second animal died | > 2500 mg/kg |  |  |  |
| CCCCCCCCCCS(=O)(=O)c1ccc(O)c(C(=O)Nc2cccc(C(F)(F)F)c2)c1 [(e), 5-n-decylsulfonyl-3'-trifluoromethyl-salicylanilide] |  | 20 µg/mL (≈ 41.2 µM) | 6.8 × 10^-4 |  |  |  | 2.2 × 10^-3 |  |  | 0.5 µg/mL (≈ 1.03 µM) | 0.5 µg/mL (≈ 1.03 µM) | 0.5 µg/mL (≈ 1.03 µM) | 5 µg/mL (≈ 10.3 µM) |  |  | 83% | 47% |  |
| CCCCCCCCS(=O)(=O)c1ccc(O)c(C(=O)Nc2ccc([N+](=O)[O-])cc2)c1 [(f), 5-n-octylsulfonyl-4'-nitrosalicylanilide] |  | 5 µg/mL (≈ 11.5 µM) |  |  |  |  |  |  |  | 1 µg/mL (≈ 2.3 µM) | 5 µg/mL (≈ 11.5 µM) | 5 µg/mL (≈ 11.5 µM) | 0.5 µg/mL (≈ 1.15 µM) |  |  |  |  |  |
| CCCCCCCCCCS(=O)(=O)c1ccc(O)c(C(=O)Nc2ccc(Br)cc2)c1 [(g), 5-n-decylsulfony-4'-bromosalicylanilide] |  | 5 µg/mL (≈ 10.1 µM) |  |  |  |  |  |  |  | 0.5 µg/mL (≈ 1.01 µM) | 0.5 µg/mL (≈ 1.01 µM) | 0.5 µg/mL (≈ 1.01 µM) | 1 µg/mL (≈ 2.01 µM) |  |  |  |  |  |
| CCCCCCS(=O)(=O)c1ccc(O)c(C(=O)Nc2ccc(Br)cc2)c1 [(h), 5-n-hexylsulfonyl-4'-bromosalicylanilide] |  | 5 µg/mL (≈ 11.4 µM) |  |  |  |  |  |  |  | 5 µg/mL (≈ 11.4 µM) | 10 µg/mL (≈ 22.7 µM) | 5 µg/mL (≈ 11.4 µM) |  |  |  |  |  |  |
| CCCCCCCCCCCCS(=O)(=O)c1ccc(O)c(C(=O)Nc2ccc(C(F)(F)F)cc2)c1 [(i), 5-n-dodecylsulfonyl-4'-trifluoromethyl salicylanilide] |  | 0.5 µg/mL (≈ 0.973 µM) |  |  |  |  |  |  |  | 0.05 µg/mL (≈ 0.0973 µM) | 0.1 µg/mL (≈ 0.195 µM) | 0.5 µg/mL (≈ 0.973 µM) |  |  |  |  |  |  |
| tetrachlorosalicylanilide |  |  |  |  |  |  |  |  |  |  |  |  |  |  |  |  |  | has been shown to produce allergic reactions in man |
